{"source": "patent US9068970B2", "about": "“Efficient and effective supplement screening for the development of chemically defined media in cell culture” (Abbvie Inc., priority 2010, dated 2015)", "assay_type_in_all_cases": "cell-based", "key": {"[1]": {"test_system": "recombinant IgG producing Chinese Hamster Ovary cell line (CHO cell line #1)", "assay": "JMP7 statistical identification of high performance media supplementation from a 15-supplement screening experiment", "method": "(§1) Standard Analysis of Variance (ANOVA) was used to measure the significance of individual supplements and their respective interactions towards the resulting cell culture technique performance. Individual analyses were conducted on both peak viable cell density and harvest titer for each of the respective screening experiments. Three different levels of each media supplement were used in these experiments: unsupplemented (Level 1), lightly supplemented (Level 2), and heavily supplemented (Level 3). […] The optimization subroutine intrinsic to the statistics software was used to analyze the screening dataset determine the identity of a high performance media blend. It is important to note that the selection method is a mathematical exercise which can lead to multiple blends identified as having the highest performance parameters, and the results are highly dependent on the initial first guess.\nFifteen of these supplements, or groups of supplements, were screened in a separate statistically designed experiment for the final determination of high performance media blends for the maximization of peak VCD, harvest titer, and both of these variables simultaneously.\nThe JMP7 statistical software program was further used to identify the high performance media supplementation for maximizing peak VCD, harvest titer, and both simultaneously."}, "[2]": {"test_system": "recombinant IgG producing Chinese Hamster Ovary cell line (CHO cell line #1)", "assay": "Supplement screening: process performance (peak VCD and/or harvest titer) by inspectional/statistical analysis", "method": "as §1, with “guess. Three particular high performance blends were identified for further evaluation: […] The supplements whose relative concentrations supported a distinct pattern of either increasing or decreasing process performance were categorized into the clustered classification. […] These supplements were either compounds or groups of similar compounds such as polyamines, essential amino acids, and vitamins.” for “guess.”"}, "[3]": {"test_system": "recombinant IgG producing Chinese Hamster Ovary cell line (CHO cell line #1)", "assay": "24-well plate media supplement screening: harvest titer (HPLC, Poros A affinity column)", "method": "(§2) 24-well plates were utilized at a working volume of 1.5 mL per well to serve as the platform for media supplement screening. An in-house, base chemically defined media (CDM #1) was used as the basal media for the purposes of the experiments. A recombinant IgG producing Chinese Hamster Ovary cell line (CHO cell line #1) was used for the media supplement screening phase of the experiments.\nAll 24-well plate screening experiments were designed using JMP7 commercially available statistics software (Cary, N.C.) using custom experimental options. Six individual media supplement screening experiments were performed to test over a hundred different supplements in statistically designed experiments and in a serial fashion. […] Supplement solutions were manually pipetted into the respective plate wells using concentrated, sterile stock solutions. The comprehensive list of media supplements evaluated for cell culture process improvement is shown below in Table 2:\n(§3) Two cell culture performance indicators were measured in the high-throughput screening experiments: peak viable cell density and harvest titer. Time point samples were withdrawn from each of the respective plate wells on Days 6, 7, and 8 post inoculation and measured for their respective viable cell densities spectrophotometrically via the CellTiter 96 AQueous Solution Cell Proliferation Assay Kits™ (Promega, Madison, Wis.). Harvest Titer measurements were conducted via high performance liquid chromatography (HPLC) with a Poros A™ affinity column (Applied Biosystems, Foster City, Calif.). All experimental wells supplemented with a particular combination of media compounds were compared to an unsupplemented control, with the results expressed as relative values relative to the control.\n(§4) Two cell culture performance indicators were measured in the high-throughput screening experiments as well as media verification experiments; peak viable cell density (VCD) and harvest titer. […] A few days after the last cell count measurement sample the plates were centrifuged and the supernatant was collected and stored at −80° C. for future analysis. Harvest titer measurements were conducted via high performance liquid chromatography (HPLC) with a Poros A™ affinity column (Applied Biosystems, Foster City, Calif.). All experimental wells supplemented with a particular combination of media compounds were compared to an unsupplemented control, with the results expressed as values relative to the control. For the media verification experiments in larger-scale shaker and spinner flasks, viable cell density and viability were measured via Cedex automated cell counters (Roche Applied Science, Indianapolis, Ind.). Harvest titer measurements were similarly measured via HPLC.\nas §1\nThe aforementioned supplements were evaluated for improvements in cell culture technique performance."}, "[4]": {"test_system": "recombinant IgG producing Chinese Hamster Ovary cell line (CHO cell line #1)", "assay": "24-well plate media supplement screening: peak viable cell density (CellTiter 96 AQueous)", "method": "as §2\nAll 24-well plate screening experiments were designed using JMP7 commercially available statistics software (Cary, N.C.) using custom experimental options. Six individual media supplement screening experiments were performed to test over a hundred different supplements in statistically designed experiments and in a serial fashion. All screening experiments were performed at […] cultured at 210 rpm on a shaker table in a 5% humidified CO2 incubator. Gas permeable, rayon film plate covers (VWR International, Radnor, Pa., Catalog #60941-086) were employed as necessary to provide a sterile barrier between the well plates, the plastic plate cover, and the culture atmosphere. Supplement solutions were manually pipetted into the respective plate wells using concentrated, sterile stock solutions. The comprehensive list of media supplements evaluated for cell culture process improvement is shown below in Table 2:\nas §3, §4, §1"}, "[5]": {"details": "predicted amount for addition into the unsupplemented control media"}, "[6]": {"details": "univariate analysis of varying supplement concentrations"}, "[7]": {"details": "HTS experiments, CDM #1, relative to unsupplemented control"}, "[8]": {"details": "range given, variability in culture volumes"}}, "note": "Read-outs that look alike come from different tables or passages of the source.", "data": [{"molecule": "OC[C@H]1O[C@@H]2O[C@H]3[C@H](O)[C@@H](O)[C@@H](O[C@H]4[C@H](O)[C@@H](O)[C@@H](O[C@H]5[C@H](O)[C@@H](O)[C@@H](O[C@H]6[C@H](O)[C@@H](O)[C@@H](O[C@H]7[C@H](O)[C@@H](O)[C@@H](O[C@H]8[C@H](O)[C@@H](O)[C@@H](O[C@H]1[C@H](O)[C@H]2O)O[C@@H]8CO)O[C@@H]7CO)O[C@@H]6CO)O[C@@H]5CO)O[C@@H]4CO)O[C@@H]3CO", "note": "[β-cyclodextrin]", "values": [{"measurement": "Concentration Target (Range) for Increase of Harvest Titer", "setting": "[1]; [5]", "result": 0, "unit": "g/L"}, {"measurement": "Concentration Target (Range) for Increase of Peak VCD", "setting": "[1]; [5]", "result": "+0.16 (0.14-0.18) g/L"}, {"measurement": "Concentration Target (Range) for Increase of Peak VCD and Harvest Titer", "setting": "[1]; [5]", "result": 0, "unit": "g/L"}, {"measurement": "Process Performance Pattern", "setting": "[2]; [6]", "result": "Wide dispersal"}, {"measurement": "Effect on Harvest Titer", "setting": "[3]; [7]", "result": "Increase"}, {"measurement": "Effect on Peak VCD", "setting": "[4]; [7]", "result": "Increase"}]}, {"molecule": "[Cl-].[Cl-].[Zn+2]", "note": "[Zinc chloride]", "values": [{"measurement": "Concentration Target (Range) for Increase of Harvest Titer", "setting": "[1]; [5]", "result": "+5.46 × 10^−3 g/L"}, {"measurement": "Concentration Target (Range) for Increase of Peak VCD", "setting": "[1]; [5]", "result": "+2.05 × 10^−3 g/L"}, {"measurement": "Concentration Target (Range) for Increase of Peak VCD and Harvest Titer", "setting": "[1]; [5]", "result": "+5.12 × 10^−3 g/L"}, {"measurement": "Concentration Range for Increase of Harvest Titer", "setting": "[1]; [8]", "result": "(4.85 × 10^−3-6.22 × 10^−3) g/L"}, {"measurement": "Concentration Range for Increase of Peak VCD", "setting": "[1]; [8]", "result": "(1.82 × 10^−3-2.33 × 10^−3) g/L"}, {"measurement": "Concentration Range for Increase of Peak VCD and Harvest Titer", "setting": "[1]; [8]", "result": "(4.54 × 10^−3-5.83 × 10^−3) g/L"}, {"measurement": "Process Performance Pattern", "setting": "[2]; [6]", "result": "Clustered"}, {"measurement": "Effect on Harvest Titer", "setting": "[3]; [7]", "result": "Increase"}, {"measurement": "Effect on Peak VCD", "setting": "[4]; [7]", "result": "No change"}]}, {"molecule": "O=P(O)(O)O", "note": "[Potassium phosphate]", "values": [{"measurement": "Concentration Target (Range) for Increase of Harvest Titer", "setting": "[1]", "result": "+0.09 (0.08-0.10) g/L"}, {"measurement": "Concentration Target (Range) for Increase of Peak VCD", "setting": "[1]", "result": "+0.10 (0.09-0.12) g/L"}, {"measurement": "Concentration Target (Range) for Increase of Peak VCD and Harvest Titer", "setting": "[1]", "result": "+0.10 (0.09-0.12) g/L"}, {"measurement": "Process Performance Pattern", "setting": "[2]", "result": "Clustered"}, {"measurement": "Effect on Harvest Titer", "setting": "[3]", "result": "Decrease"}, {"measurement": "Effect on Peak VCD", "setting": "[4]", "result": "Increase"}]}, {"molecule": "Manganese chloride", "values": [{"measurement": "Concentration Target (Range) for Increase of Harvest Titer", "setting": "[1]; [5]", "result": "+1.07 × 10^−4 g/L"}, {"measurement": "Concentration Target (Range) for Increase of Peak VCD", "setting": "[1]; [5]", "result": "+6.67 × 10^−5^ g/L"}, {"measurement": "Concentration Target (Range) for Increase of Peak VCD and Harvest Titer", "setting": "[1]; [5]", "result": 0, "unit": "g/L"}, {"measurement": "Concentration Range for Increase of Harvest Titer", "setting": "[1]; [8]", "result": "(9.46 × 10^−5-1.21 × 10^−4) g/L"}, {"measurement": "Concentration Range for Increase of Peak VCD", "setting": "[1]; [8]", "result": "(5.91 × 10^−5-7.59 × 10^−5) g/L"}, {"measurement": "Process Performance Pattern", "setting": "[2]; [6]", "result": "Wide dispersal"}, {"measurement": "Effect on Harvest Titer", "setting": "[3]; [7]", "result": "No change"}, {"measurement": "Effect on Peak VCD", "setting": "[4]; [7]", "result": "Increase"}]}, {"molecule": "OC[C@H]1O[C@@H]2O[C@H]3[C@H](O)[C@@H](O)[C@@H](O[C@H]4[C@H](O)[C@@H](O)[C@@H](O[C@H]5[C@H](O)[C@@H](O)[C@@H](O[C@H]6[C@H](O)[C@@H](O)[C@@H](O[C@H]7[C@H](O)[C@@H](O)[C@@H](O[C@H]1[C@H](O)[C@H]2O)O[C@@H]7CO)O[C@@H]6CO)O[C@@H]5CO)O[C@@H]4CO)O[C@@H]3CO", "note": "[α-cyclodextrin]", "values": [{"measurement": "Concentration Target (Range) for Increase of Harvest Titer", "setting": "[1]; [5]", "result": 0, "unit": "g/L"}, {"measurement": "Concentration Target (Range) for Increase of Peak VCD", "setting": "[1]; [5]", "result": "+0.16 (0.14-0.18) g/L"}, {"measurement": "Concentration Target (Range) for Increase of Peak VCD and Harvest Titer", "setting": "[1]; [5]", "result": 0, "unit": "g/L"}, {"measurement": "Process Performance Pattern", "setting": "[2]; [6]", "result": "Wide dispersal"}, {"measurement": "Effect on Harvest Titer", "setting": "[3]; [7]", "result": "Increase"}, {"measurement": "Effect on Peak VCD", "setting": "[4]; [7]", "result": "Increase"}]}, {"molecule": "Calcium pantothenate", "values": [{"measurement": "Concentration Target (Range) for Increase of Harvest Titer", "setting": "[1]; [5]", "result": 0, "unit": "g/L"}, {"measurement": "Concentration Target (Range) for Increase of Peak VCD", "setting": "[1]; [5]", "result": "+0.15 (0.13-0.17) g/L"}, {"measurement": "Concentration Target (Range) for Increase of Peak VCD and Harvest Titer", "setting": "[1]; [5]", "result": 0, "unit": "g/L"}, {"measurement": "Process Performance Pattern", "setting": "[2]; [6]", "result": "Wide dispersal"}, {"measurement": "Effect on Harvest Titer", "setting": "[3]; [7]", "result": "No change"}, {"measurement": "Effect on Peak VCD", "setting": "[4]; [7]", "result": "Increase"}]}, {"molecule": "Cc1cn([C@H]2C[C@H](O)[C@@H](CO)O2)c(=O)[nH]c1=O", "note": "[Thymidine]", "values": [{"measurement": "Concentration Range for Increase of Peak VCD", "setting": "[1]; [8]", "result": "(1.75 × 10^−3-2.25 × 10^−3) g/L"}, {"measurement": "Process Performance Pattern", "setting": "[2]; [6]", "result": "Wide dispersal"}, {"measurement": "Effect on Harvest Titer", "setting": "[3]; [7]", "result": "Decrease"}, {"measurement": "Effect on Peak VCD", "setting": "[4]; [7]", "result": "No change"}]}]}
